{
  "source": "PubChem BioAssay AID2060884",
  "about": "(Molecular Pharmacology Branch, DTP, NCI, 2025)",
  "system": "NCI-H929 complex spheroids, viability % test/control",
  "test": "Anticancer human tumor NCI-H929 cell line growth inhibition [RAS];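 further: compound exposure lasted seven days before viability was read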;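 on viability, T/C: 100% = DMSO vehicle control viability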",
  "conditions": "for viability, T/C: stronger effect = lower value",
  "outline": "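Multi-cell-type spheroids: tumor cells plus HUVEC endothelial cells and mesenchymal stem cells. RAS-pathway inhibitors were combined with targeted agents, each dosed in half-log steps down from clinical Cmax, or from 10 microM when Cmax was unknown.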",
  "note": "“And” between values parts separate entries of the source, which are not always exact repeats. Equal entries are not always repeated.",
  "data": [
    {"smiles": "CC(C)n1nc(-c2ccc3oc(N)nc3c2)c2c(N)ncnc21", "values": [
      {"measurement": "viability, T/C", "setting": "compound 0.000316 µM", "result": "105% [middle of 4 runs]"},
      {"measurement": "viability, T/C", "setting": "compound 0.001 µM", "result": "104% (2×) and 99.9% and 103%"},
      {"measurement": "viability, T/C", "setting": "compound 0.00316 µM", "result": "110% [middle of 4 runs]"},
      {"measurement": "viability, T/C", "setting": "compound 0.01 µM", "result": "99% and 112% (2×) and 109%"},
      {"measurement": "viability, T/C", "setting": "compound 0.0316 µM", "result": "52.1% and 119% (2×) and 94.3%"},
      {"measurement": "viability, T/C", "setting": "compound 0.1 µM", "result": "9.59% [middle of 4 runs]"},
      {"measurement": "IC50", "setting": "curve of compound", "result": "33.1 nM and 62.7 nM and 55.5 nM"}
    ]},
    {"smiles": "CC1(O)CCCC1n1c(=O)c(C(F)F)cc2cnc(NC3CCN(S(C)(=O)=O)CC3)nc21", "note": "(centres undefined) + C#Cc1c(F)ccc2cc(O)cc(-c3ncc4c(N5CC6CCC(C5)N6)nc(OCC56CCCN5CC(F)C6)nc4c3F)c12", "values": [
      {"measurement": "IC50", "setting": "curve of first compound, second compound 0.0316 µM", "result": 190, "unit": "nM"},
      {"measurement": "IC50", "setting": "curve of first compound, second compound 0.1 µM", "result": 191, "unit": "nM"},
      {"measurement": "IC50", "setting": "curve of first compound, second compound 0.316 µM", "result": 194, "unit": "nM"},
      {"measurement": "IC50", "setting": "curve of first compound, second compound 1 µM", "result": 193, "unit": "nM"},
      {"measurement": "IC50", "setting": "curve of first compound, second compound 3.16 µM", "result": 183, "unit": "nM"},
      {"measurement": "IC50", "setting": "curve of first compound, second compound 10 µM", "result": 105, "unit": "nM"},
      {"measurement": "viability, T/C", "setting": "second compound 0.0316 µM, first compound 0.0316 µM", "result": 112, "unit": "%"},
      {"measurement": "viability, T/C", "setting": "second compound 0.0316 µM, first compound 0.1 µM", "result": 106, "unit": "%"},
      {"measurement": "viability, T/C", "setting": "second compound 0.0316 µM, first compound 0.316 µM", "result": 5.76, "unit": "%"},
      {"measurement": "viability, T/C", "setting": "second compound 0.0316 µM, first compound 1 µM", "result": 10.1, "unit": "%"},
      {"measurement": "viability, T/C", "setting": "second compound 0.0316 µM, first compound 3.16 µM", "result": 3.99, "unit": "%"},
      {"measurement": "viability, T/C", "setting": "second compound 0.0316 µM, first compound 10 µM", "result": 0.89, "unit": "%"},
      {"measurement": "viability, T/C", "setting": "second compound 0.1 µM, first compound 0.0316 µM", "result": 104, "unit": "%"},
      {"measurement": "viability, T/C", "setting": "second compound 0.1 µM, first compound 0.1 µM", "result": 108, "unit": "%"},
      {"measurement": "viability, T/C", "setting": "second compound 0.1 µM, first compound 0.316 µM", "result": 5.96, "unit": "%"},
      {"measurement": "viability, T/C", "setting": "second compound 0.1 µM, first compound 1 µM", "result": 11.6, "unit": "%"},
      {"measurement": "viability, T/C", "setting": "second compound 0.1 µM, first compound 3.16 µM", "result": 3.51, "unit": "%"},
      {"measurement": "viability, T/C", "setting": "second compound 0.1 µM, first compound 10 µM", "result": 0.63, "unit": "%"},
      {"measurement": "viability, T/C", "setting": "second compound 0.316 µM, first compound 0.0316 µM", "result": 105, "unit": "%"},
      {"measurement": "viability, T/C", "setting": "second compound 0.316 µM, first compound 0.1 µM", "result": 112, "unit": "%"},
      {"measurement": "viability, T/C", "setting": "second compound 0.316 µM, first compound 0.316 µM", "result": 6.91, "unit": "%"},
      {"measurement": "viability, T/C", "setting": "second compound 0.316 µM, first compound 1 µM", "result": 13.5, "unit": "%"},
      {"measurement": "viability, T/C", "setting": "second compound 0.316 µM, first compound 3.16 µM", "result": 4.01, "unit": "%"},
      {"measurement": "viability, T/C", "setting": "second compound 0.316 µM, first compound 10 µM", "result": 0.21, "unit": "%"},
      {"measurement": "viability, T/C", "setting": "second compound 1 µM, first compound 0.0316 µM", "result": 107, "unit": "%"},
      {"measurement": "viability, T/C", "setting": "second compound 1 µM, first compound 0.1 µM", "result": 109, "unit": "%"},
      {"measurement": "viability, T/C", "setting": "second compound 1 µM, first compound 0.316 µM", "result": 6.21, "unit": "%"},
      {"measurement": "viability, T/C", "setting": "second compound 1 µM, first compound 1 µM", "result": 11.2, "unit": "%"},
      {"measurement": "viability, T/C", "setting": "second compound 1 µM, first compound 3.16 µM", "result": 3.72, "unit": "%"},
      {"measurement": "viability, T/C", "setting": "second compound 1 µM, first compound 10 µM", "result": 0.45, "unit": "%"},
      {"measurement": "viability, T/C", "setting": "second compound 3.16 µM, first compound 0.0316 µM", "result": 114, "unit": "%"},
      {"measurement": "viability, T/C", "setting": "second compound 3.16 µM, first compound 0.1 µM", "result": 99, "unit": "%"},
      {"measurement": "viability, T/C", "setting": "second compound 3.16 µM, first compound 0.316 µM", "result": 6, "unit": "%"},
      {"measurement": "viability, T/C", "setting": "second compound 3.16 µM, first compound 1 µM", "result": 12.5, "unit": "%"},
      {"measurement": "viability, T/C", "setting": "second compound 3.16 µM, first compound 3.16 µM", "result": 2.73, "unit": "%"},
      {"measurement": "viability, T/C", "setting": "second compound 3.16 µM, first compound 10 µM", "result": 0.21, "unit": "%"},
      {"measurement": "viability, T/C", "setting": "second compound 10 µM, first compound 0.0316 µM", "result": 97.9, "unit": "%"},
      {"measurement": "viability, T/C", "setting": "second compound 10 µM, first compound 0.1 µM", "result": 51.8, "unit": "%"},
      {"measurement": "viability, T/C", "setting": "second compound 10 µM, first compound 0.316 µM", "result": 10.6, "unit": "%"},
      {"measurement": "viability, T/C", "setting": "second compound 10 µM, first compound 1 µM", "result": 11.6, "unit": "%"},
      {"measurement": "viability, T/C", "setting": "second compound 10 µM, first compound 3.16 µM", "result": 3.3, "unit": "%"},
      {"measurement": "viability, T/C", "setting": "second compound 10 µM, first compound 10 µM", "result": 0.45, "unit": "%"}
    ]},
    {"smiles": "CC(Nc1ccc2c(c1)OCCn1cc(N3C(=O)OCC3C(F)F)nc1-2)C(N)=O", "note": "(centres undefined)", "values": [
      {"measurement": "viability, T/C", "setting": "compound 0.0316 µM", "result": "106% [middle of 4 runs]"},
      {"measurement": "viability, T/C", "setting": "compound 0.1 µM", "result": "102% [middle of 4 runs]"},
      {"measurement": "viability, T/C", "setting": "compound 0.316 µM", "result": "107% (2×) and 97.8% and 109%"},
      {"measurement": "viability, T/C", "setting": "compound 1 µM", "result": "108% [middle of 4 runs]"},
      {"measurement": "IC50", "setting": "curve of compound", "result": "> 10000 nM and 6140 nM and 6230 nM"}
    ]}
  ]
}
